# Test results as given in patent US20020045764A1, “Tubulin binding compounds (COBRA)” (Parker Hughes Institute, priority 1998, published 2002).
# Assays:
# [1] = test system: BT-20 breast cancer cells; test: Cytotoxicity by confocal microscopy (tubulin immunofluorescence); format: cell-based, human
# Protocol: (§1) Cells were incubated at 37° C. for the indicated time periods with the title compounds. At the end of the incubation, cells were washed twice with PBS and fixed in 2% paraformaldehyde. The cells were permeabilized and non-specific binding sites were blocked with 2.5% BSA in PBS containing 0.1% Triton X-100 for 30 minutes. Tubulin expression was examined by immunofluorescence using a monoclonal antibody against α-tubulin (Sigma Chemical Co, St. Louis, Mo.) at a dilution of 1:1000 and an anti-mouse IgG conjugated to FITC. Cells were washed in PBS and counterstained with toto-3 (Molecular Probes Inc., Eugene, Oreg.) for 10 minutes at a dilution of 1:1000. Cells were washed again with PBS and the coverslips were mounted with Vectashield (Vector Labs, Burlingame, Calif.) and viewed with a confocal microscope (Bio-Rad MRC 1024) mounted in a Nikon Labhophot upright microscope. Digital images were saved on a Jaz disk and processed with Adobe Photoshop software (Adobe Systems, Mountain View, Calif.).
# (§2) The ultrastructural changes in human breast and glioblastoma cancer cells treated with COBRA-1 or COBRA-2 were examined by confocal microscopy and by transmission electron microscopy, using methods previously reported^19.
# U373 brain tumor cells [2] = test: as above; format: cell-based, human
# Protocol: as §1, §2
# Nalm-6 leukemia cells = test: Transmission electron microscopy; format: cell-based, human; design: dose or concentration left out as unconfirmed
# human tumor cell lines = test: MTT assays, panel of human tumor cell lines (overall statement); format: cell-based; conditions: 0.1 to 250 μM
# Protocol: (§3) The antiproliferative activity of […] and the control mono-THF containing compounds 8.2, 8.3, and 8.4 was examined against a panel of 5 different human tumor cell lines using standard MTT (3-[4,5-dimethylthiazol-2-yl]-2,5-diphenyl tetrazolium bromide) assays^18 (Boehringer Mannheim Corp., Indianapolis, Ind.).
# Briefly, exponentially growing brain tumor cells were seeded into a 96-well plate at a density of 2.5×10^4 cells/well and incubated for 36 hours at 37° C. prior to drug exposure. On the day of treatment, culture medium was carefully aspirated from the wells and replaced with fresh medium containing the test or control compounds at concentrations ranging from 0.1 to 250 μM. Triplicate wells were used for each treatment. The cells were incubated with the various compounds for 24-36 hours at 37° C. in a humidified 5% CO2 atmosphere. To each well, 10 μl of MTT (0.5 mg/ml final concentration) was added and the plates were incubated at 37° C. for 4 hours to allow MTT to form formazan crystals by reacting with metabolically active cells . […] The absorbence of each well was measured in a microplate reader (Labsystems) at 540 nm and a reference wavelength of 690 nm. […] The percent survival was calculated using the formula: % survival=Live cell number[test]×100/Live cell number[control]. […]
# U373 brain tumor cells [3] = test: Two-photon confocal laser scanning microscopy, DiA-labeled cells; format: cell-based, human; conditions: for cell morphology: U373, 100 μM
# Protocol: In some experiments, COBRA-1 treated brain tumor cells were labeled with the membrane dye DiA and imaged using multiphoton microscopy. The individual tumor cells were imaged 1 hour before adding 100 μM COBRA- 1. The total imaging period was 3 hours.
# U373 brain tumor cells were labeled with the membrane dye DiA and imaged using two-photon microscopy.
# Arrows denote membrane ruffles formed in the direction that the cell is crawling. Arrowheads denote the trailing edge or the edge where the cell is retracting. The cell was imaged 1 hour before adding 100 μM DDE261 (FIG. 9A). […] The cell continued to shrink throughout the 3 hour imaging period (FIGS. 9E and 9F). The white material in the color photographs is the dye, DiA. The Scale Bar denotes 20 microns.
# NALM-6 = test: MTT assay; format: cell-based, human; conditions: 24-36 hours
# Protocol: as §3
# (§4) Briefly, exponentially growing brain tumor cells were seeded into a 96-well plate at a density of 2.5×10^4 cells/well and incubated for 36 hours at 37° C. prior to drug exposure. On the day of treatment, culture medium was carefully aspirated from the wells and replaced with fresh medium containing the test or control compounds at concentrations ranging from 0.1 to 250 μM. Triplicate wells were used for each treatment. The cells were incubated with the various compounds for 24-36 hours at 37° C. in a humidified 5% CO2 atmosphere. To each well, 10 μl of MTT (0.5 mg/ml final concentration) was added and the plates were incubated at 37° C. for 4 hours to allow MTT to form formazan crystals by reacting with metabolically active cells . The formazan crystals were solubilized overnight at 37° C. in a solution containing 10% SDS in 0.01 M HCl. The absorbence of each well was measured in a microplate reader (Labsystems) at 540 nm and a reference wavelength of 690 nm. To translate the OD 540 values into the number of live cells in each well, the OD540 values were compared to those on standard OD540-versus-cell number curves generated for each cell line. The percent survival was calculated using the formula: % survival=Live cell number[test]×100/Live cell number[control].
# (§5) IC50 values were calculated by non-linear regression analysis using an Graphpad Prism software version 2.0 (Graphpad Software, Inc., San Diego, Calif.).
# (§6) The following human cancer cell lines were used in the present study: BT-20, breast cancer; MDA-MB-231, breast cancer; PC3, prostate cancer; U87 and U373, glioblastoma; NALM-6, B-lineage acute lymphoblastic leukemia. These cell lines were obtained from American Type Culture Collection (Manassas, Va.) and maintained as continuous cell lines in Dulbecco's modified Eagles's medium supplemented with 10% fetal bovine serum and antibiotics.
# U87 = test: MTT assay; format: cell-based, human; conditions: 24-36 hours
# Protocol: as §3, §4, §5, §6
# PC-3 = test: MTT assay; format: cell-based, human; conditions: 24-36 hours
# Protocol: as §3, §4, §5, §6
# MDA-MB-231 = test: MTT assay; format: cell-based, human; conditions: 24-36 hours
# Protocol: as §3, §4, §5, §6
# Bovine brain tubulin = target: T1, Bovine brain tubulin (Bos taurus, UniProt P81947+Q6B856); test: Tubulin turbidity assay (GTP-induced tubulin polymerization); format: biochemical; conditions: 1 mg/ml tubulin, 1 mM GTP, 37° C., OD 350 nm
# T1 construct: purchased Sigma, St. Louis, Mo; host or cells: bovine brain (tissue-purified)
# T1 sequence (P81947 whole entry): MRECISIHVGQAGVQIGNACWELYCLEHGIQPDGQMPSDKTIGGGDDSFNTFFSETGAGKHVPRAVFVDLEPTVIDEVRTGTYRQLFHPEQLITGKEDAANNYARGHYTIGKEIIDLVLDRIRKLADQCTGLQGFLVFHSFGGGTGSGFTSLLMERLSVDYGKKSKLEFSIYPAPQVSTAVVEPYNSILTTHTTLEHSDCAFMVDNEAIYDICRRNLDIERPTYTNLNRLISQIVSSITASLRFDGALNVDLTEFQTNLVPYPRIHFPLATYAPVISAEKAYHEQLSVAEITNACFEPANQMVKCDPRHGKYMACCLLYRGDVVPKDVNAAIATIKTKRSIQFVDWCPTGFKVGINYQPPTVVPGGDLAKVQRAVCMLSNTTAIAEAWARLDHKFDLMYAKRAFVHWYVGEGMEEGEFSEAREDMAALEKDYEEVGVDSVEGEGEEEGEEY
# T1 sequence (Q6B856 whole entry): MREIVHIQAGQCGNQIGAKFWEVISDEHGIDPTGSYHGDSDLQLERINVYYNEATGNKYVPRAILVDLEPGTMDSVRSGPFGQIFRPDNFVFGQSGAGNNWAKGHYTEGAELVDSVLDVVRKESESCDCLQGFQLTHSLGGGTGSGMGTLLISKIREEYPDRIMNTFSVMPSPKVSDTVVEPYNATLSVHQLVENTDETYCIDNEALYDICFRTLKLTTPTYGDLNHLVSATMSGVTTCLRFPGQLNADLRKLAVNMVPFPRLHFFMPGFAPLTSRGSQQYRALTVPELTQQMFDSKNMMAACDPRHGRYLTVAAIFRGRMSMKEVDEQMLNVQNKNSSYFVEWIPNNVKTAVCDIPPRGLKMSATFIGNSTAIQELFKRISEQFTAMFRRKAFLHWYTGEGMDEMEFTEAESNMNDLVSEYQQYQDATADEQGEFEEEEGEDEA
# Protocol: Bovine brain tubulin (Sigma, St. Louis, Mo.) was used in standard turbidity assays to test the effects of compounds COBRA-1 and COBRA-2 as well as control compounds on GTP-induced tubulin polymerization. Compounds (in 1% DMSO) were added to tubulin (1 mg/ml, 0.1M MES, 1 mM EGTA, 0.5 mM MgCl2, 0.1 mM EDTA, 2.5M glycerol, 1 μg/ml leupeptin, 1 μg/ml aprotinin, pH 6.5) followed by stimulation of polymerization with 1 mM GTP at 2 minutes and 1 mM taxol at 30 minutes. Optical density was measured using a Becton Dickinson UV spectrophotometer (350 nm) using a thermostated cuvette holder to keep the reaction at 37° C. Readings obtained from the spectro-photometer were standardized by subtracting the background absorbance of the compound in water from the sample reading following drug addition.
# To test the latitude of the structure at the opposite end of the molecule from the long chain (head region), three new COBRA compounds were synthesized according to the schemes shown below: COBRA-3, COBRA-4, and COBRA-5. Each of these compounds was then tested for tubulin depolymerization activity, using the tubidity assay described in the Examples above.
# Each of these compounds was assayed for effects on GTP-dependent tubulin polymerization, using the methods described above.
# [4] = test system: zebrafish (ZF) (Danio rerio) embryos; test: Zebrafish embryo model, cell division and development; format: in vivo
# Protocol: ZF eggs were removed from their chorions by mild digestion in 1% Trypsin-EDTA (Sigma) for 10 minutes at 28.5° C. (Standard temperature—ST), washed three times in “egg water”^15-16 and twice in “embryonic medium” (EM)^15-16. The dechorionated two-cell stage cleaving eggs/embryos were transferred to the 24-well plastic cell culture plates (Costar, City, State) filled with EM or Hank's Balanced Salt Saline (HBSS, Gibco, City, State). Dechorionated embryos (10-12 per well) were exposed to the drugs at a constant ST for 0.5-24 hours. The final volume of the media in each well was 500 μL. All reference as well as test compounds were used at concentrations ranging from 10 μM to 4 mM. The title compounds were dissolved in DMSO and then diluted serially with the incubation medium. The final concentration of DMSO in the wells was 1.2% (with the exception of the etoposide treatment where it was 3%). The sham-treated control embryos were incubated in EM or HBSS in the presence of 1.2% (or 3%) DMSO.
# Observations of cell division and development of the ZF embryos were carried out using a SMZ-10A stereo microscope (Nicon, City, State), once every 30 minutes within the first 3 hours of incubation and at 6, 12 and 24 hours, as well. […] The stereo microscope was fitted with a specially designed transparent heating tray in order to keep embryos at ST during observations. Pictures of the embryos were taken with a H-III Photomicrographic System (Nicon) using Ektachrome 64X film (Kodak, Rochester, N.Y.).
# SQ20B = test: MTT assay; format: cell-based, human; conditions: 24-36 hours
# Protocol: as §3, §4, §5
structure (smiles),measurement,setting,value
CCCCCCCCCCCC[C@@H](O)[C@H]1CC[C@H](CO)O1 [COBRA-1],cell morphology / microtubules,"[1]; BT-20, 100 μM, 24 hours",the cells shrink and the microtubules become less organized
same,cell morphology / microtubules,"[1]; BT-20, 200 μM",cell death with nuclear fragmentation and complete loss of microtubule formation
same,cell morphology / microtubules,"U373 brain tumor cells [2]; U373, 100 μM",induces abnormal tubulin structures
same,cell morphology / microtubules,"U373 brain tumor cells [2]; U373, 200 μM",cell death with nuclear fragmentation and complete loss of microtubule formation
same,ultrastructural changes,Nalm-6 leukemia cells,"nuclear fragmentation, chromatin condensation, and formation of multiple autophagosomes, consistent with apoptosis"
same,inhibition of all cell lines,human tumor cell lines,inhibited by COBRA-1 in a dose-dependent fashion
same,cell morphology,U373 brain tumor cells [3]; after 1 hour,only trailing edges are present
same,cell morphology,U373 brain tumor cells [3]; within 40 minutes of drug addition,only one membrane ruffle is still evident
same,onset of induced apoptosis after exposure,U373 brain tumor cells [3]; tumor cells (U373),approximately 1 hour
same,time to total destruction,U373 brain tumor cells [3]; tumor cells (U373),≤ 24 h
same,IC50,NALM-6,49 µM
same,IC50,U87,107 µM
same,IC50,PC-3,171 µM
same,IC50,MDA-MB-231,77 µM
same,effect on GTP-dependent tubulin polymerization (turbidity),Bovine brain tubulin,caused partial depolymerization of tubulin and inhibited its polymerization in the presence of GTP
same,effect on ZF embryo,"[4]; 200 μM, 30 minutes",start of cell fusion
same,effect on ZF embryo,"[4]; 200 μM, 60 minutes","cell division blockade, total fusion and developmental arrest"
same,effect on ZF embryo,"[4]; 400 μM, 30 minutes",deterioration of cell division and start of cell fusion
same,effect on ZF embryo,"[4]; 400 μM, 60 minutes","cell division blockade, total fusion and developmental arrest"
same,effect on two-cell stage ZF embryos,[4]; 200 and 400 μM,"developed normally for 30 minutes, up to the 8-cell stage, and then showed an immediate arrest of proliferation followed by cell fusion"
same,IC50,SQ20B,140 µM
C=CCC[C@H](O)[C@H]1CC[C@H]([C@H](O)CCCCCCCCCCCC)O1 [COBRA-2],cell morphology / microtubules,"[1]; BT-20, 100-200 μM",cell death with nuclear fragmentation and complete loss of microtubule formation
same,cell morphology / microtubules,"[1]; BT-20, 24 hours (FIG. 10B)",the cells shrink and the microtubules become less organized
same,cell morphology / microtubules,"U373 brain tumor cells [2]; U373, 100-200 μM",cell death with nuclear fragmentation and complete loss of microtubule formation
same,cell morphology / microtubules,"U373 brain tumor cells [2]; U373, 24 hours (FIG. 10E)",the cells shrink and the microtubules become less organized
same,effect on GTP-dependent tubulin polymerization (turbidity),Bovine brain tubulin,caused partial depolymerization of tubulin and inhibited its polymerization in the presence of GTP
CCCCCCCCCCCC[C@@H](O)[C@H]1CC[C@H]([C@@H](O)CO)O1 [COBRA-4],effect on GTP-dependent tubulin polymerization (turbidity),Bovine brain tubulin,caused partial depolymerization of tubulin and completely inhibited its polymerization in the presence of GTP
OC(CSOOc1ccccc1)C1CCC(COCc2ccccc2)O1 (centres unmarked) [Compound 8.2],IC50,NALM-6; Homo sapiens,> 250 µM
same,IC50,"U87; Homo sapiens, U-87 MG",> 250 µM
same,IC50,PC-3; Homo sapiens,> 250 µM
same,IC50,MDA-MB-231; Homo sapiens,> 250 µM
same,IC50,SQ20B; Homo sapiens,> 250 µM
C[C@@H](O)[C@H]1CC[C@H](CO)O1 [Compound 8.3],IC50,NALM-6; Homo sapiens,> 250 µM
same,IC50,"U87; Homo sapiens, U-87 MG",> 250 µM
same,IC50,PC-3; Homo sapiens,> 250 µM
same,IC50,MDA-MB-231; Homo sapiens,> 250 µM
same,IC50,SQ20B; Homo sapiens,> 250 µM
OCC(O)[C@H]1CC[C@H](CO)O1 (some centres unmarked) [Compound 8.4],IC50,NALM-6; Homo sapiens,> 250 µM
same,IC50,"U87; Homo sapiens, U-87 MG",> 250 µM
same,IC50,PC-3; Homo sapiens,> 250 µM
same,IC50,MDA-MB-231; Homo sapiens,> 250 µM
same,IC50,SQ20B; Homo sapiens,> 250 µM
"CN(Cc1cnc2nc(N)nc(N)c2n1)c1ccc(C(=O)N[C@@H](CCC(=O)O)C(=O)O)cc1 [methotrexate, reference compound]",effect on gastrulation,[4]; 1-4 mM,failed to gastrulate
same,effect on cell division during cleavage and blastula stages,[4]; by 4 hours of incubation,no visible effect
"CC(=O)O[C@H]1C(=O)[C@@]2(C)[C@H]([C@H](OC(=O)c3ccccc3)[C@]3(O)C[C@H](OC(=O)[C@H](O)[C@@H](NC(=O)c4ccccc4)c4ccccc4)C(C)=C1C3(C)C)[C@]1(OC(C)=O)CO[C@@H]1C[C@@H]2O [paclitaxel, reference compound]",effect on ZF embryos,[4]; 400 μM in EM,developmental abnormalities after 90 minutes of exposure
"CC[C@]1(O)C[C@H]2CN(CCc3c([nH]c4ccccc34)[C@@](C(=O)OC)(c3cc4c(cc3OC)N(C=O)[C@H]3[C@@](O)(C(=O)OC)[C@H](OC(C)=O)[C@]5(CC)C=CCN6CC[C@]43[C@@H]65)C2)C1 [vincristine, reference compound]",effect on ZF embryos,[4]; 100 μM in EM or HBSS,"rapid total cell division blockade, cell fusion and developmental arrest"
same,time until two-cell stage embryos stopped cleaving,[4]; 100 μM in EM or HBSS,≤ 15 min
